The values below come from patent publication US10513521B2, “Compositions and methods for inhibiting BMP” (The Brigham and Women's Hospital, Inc., priority 2014, dated 2019).

Assay [1] concerns the target T1, ALK2 (Homo sapiens, UniProt Q04771).
T1 sequence (Q04771 21-509): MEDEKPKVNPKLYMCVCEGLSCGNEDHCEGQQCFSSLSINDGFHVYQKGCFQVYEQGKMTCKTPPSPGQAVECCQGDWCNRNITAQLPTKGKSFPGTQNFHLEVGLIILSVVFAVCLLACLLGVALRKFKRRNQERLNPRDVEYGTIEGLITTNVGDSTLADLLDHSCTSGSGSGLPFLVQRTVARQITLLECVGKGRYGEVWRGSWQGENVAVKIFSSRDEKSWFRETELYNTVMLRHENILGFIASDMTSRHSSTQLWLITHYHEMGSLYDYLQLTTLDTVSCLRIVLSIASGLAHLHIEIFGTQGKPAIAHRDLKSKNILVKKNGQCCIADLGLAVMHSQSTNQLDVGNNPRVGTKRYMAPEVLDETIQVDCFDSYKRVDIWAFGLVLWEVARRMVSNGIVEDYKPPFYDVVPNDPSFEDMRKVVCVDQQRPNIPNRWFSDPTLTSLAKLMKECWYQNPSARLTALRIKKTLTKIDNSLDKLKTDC
In words: TR-FRET enzymatic ALK kinase assay, ALK2. In general terms: TR-FRET usually uses a lanthanide donor and a delayed reading to cut background.
Method: (§1) Briefly, the ALKs enzymatic assay was initiated by dispense 2.5 μl enzyme in 1× kinase reaction buffer. The assay plate was then added with compounds followed by incubation at room temperature for 10 minutes. Then 2.5 μl/well substrate was added.

Assay [2] concerns the target ALK6 (Homo sapiens, UniProt O00238). Nature of the assay: TR-FRET enzymatic ALK kinase assay, ALK6.
Method: as §1
The target in assay [3] is T2, ALK5 (Homo sapiens, UniProt P36897).
T2 sequence (P36897 34-503): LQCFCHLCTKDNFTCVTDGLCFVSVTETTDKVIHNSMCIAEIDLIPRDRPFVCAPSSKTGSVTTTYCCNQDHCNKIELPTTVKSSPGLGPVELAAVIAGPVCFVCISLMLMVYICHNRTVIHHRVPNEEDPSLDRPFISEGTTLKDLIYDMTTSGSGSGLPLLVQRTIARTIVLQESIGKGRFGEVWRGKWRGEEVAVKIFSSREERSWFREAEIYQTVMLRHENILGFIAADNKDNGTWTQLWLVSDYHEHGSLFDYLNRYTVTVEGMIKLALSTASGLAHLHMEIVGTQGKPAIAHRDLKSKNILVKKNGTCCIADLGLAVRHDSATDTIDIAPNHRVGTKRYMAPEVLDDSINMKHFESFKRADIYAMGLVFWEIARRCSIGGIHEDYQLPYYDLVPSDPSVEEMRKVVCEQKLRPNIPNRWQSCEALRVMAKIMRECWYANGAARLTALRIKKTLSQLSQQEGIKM
In words: TR-FRET enzymatic ALK kinase assay, ALK5.
Method: Six ALK kinase enzyme assays were developed for determination of compound activities on ALK1, ALK2, ALK3, ALK4, ALK5 and ALK6.
as §1

Assay [4] concerns the target T3, ALK4 (Homo sapiens, UniProt P36896).
T3 sequence (P36896 24-505): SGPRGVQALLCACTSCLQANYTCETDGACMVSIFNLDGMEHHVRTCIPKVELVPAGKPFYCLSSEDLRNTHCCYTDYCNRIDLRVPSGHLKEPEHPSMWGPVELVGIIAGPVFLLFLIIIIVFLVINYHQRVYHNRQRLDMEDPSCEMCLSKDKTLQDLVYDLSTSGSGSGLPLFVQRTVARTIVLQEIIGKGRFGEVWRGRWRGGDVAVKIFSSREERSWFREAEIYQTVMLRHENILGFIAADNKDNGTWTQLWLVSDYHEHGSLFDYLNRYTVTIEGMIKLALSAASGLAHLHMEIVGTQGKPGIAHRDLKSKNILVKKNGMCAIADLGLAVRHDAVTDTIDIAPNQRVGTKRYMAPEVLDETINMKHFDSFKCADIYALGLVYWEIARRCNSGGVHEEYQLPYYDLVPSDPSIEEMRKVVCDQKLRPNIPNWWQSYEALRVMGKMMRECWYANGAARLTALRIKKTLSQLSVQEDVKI
Nature of the assay: TR-FRET enzymatic ALK kinase assay, ALK4.
Method: as §1

For assay [5], the target named is ALK1 (Homo sapiens, UniProt P37023). In words: TR-FRET enzymatic ALK kinase assay, ALK1.
Method: as §1
Assay [6] concerns the target ALK3 (Homo sapiens, UniProt P36894). In words: TR-FRET enzymatic ALK kinase assay, ALK3.
Method: as §1
Assay [7] concerns the target T4, ALK2 (Mus musculus, UniProt P37172).
T4 construct: The C2C12 cell line was selected for the measurement of ALK2 activity using BMP6 as the agonist; host or cells: C2C12
T4 sequence (P37172 21-509): T1 sequence (Q04771 21-509) with M1V, P10Q, L121I, D162E, P310S
In words: HTRF pSMAD1 cell-based ALK2 assay (C2C12 cells, BMP6 as agonist). The method, then: 2. HTRF Cell-Based ALK1 and ALK2 Assays in 384-Well Plate Format We have developed a cell based ALK1 kinase assay and a cell-based ALK2 assay. The BAOEC cell line was employed for the measurement of ALK1 activity using BMP9 as the agonist. The C2C12 cell line was selected for the measurement of ALK2 activity using BMP6 as the agonist. The kinase specificity was defined by the specific cell line and agonist. The kinase activity was determined by the status of SMD 1/5/8 phosphorylation stimulated by the agonist.
HyClone Fetal Bovine Serum was obtained from GE healthcare life sciences (Logan, Utah). BMP6 and BMP9 were purchased from R&D System. […] The compound plates and the white solid MB assay plates were purchased from Greiner Bio-one (Monroe, N.C.).
HTRF optimization experiments were performed in 384 well plate format. […] Pre-starved cells were then plated in 384 well plate in the starvation medium (containing in 0.1% FBS). After 4 hours, compounds were added to the assay plate and incubated for 30 minutes. The assay plate was then added with BMP6 for C2C12 cells or BMP9 for BAOEC cells and incubated for 30 minutes.
HTRF assay was performed to measure the status of SMAD 1 phosphorylation after stimulated with the agonist (Table 3). This HTRF phospho SMAD1 cell assay was developed and optimized for the homogenous detection of phospho SMAD 1 levels in cells. […] The plate was incubated at room temperature for overnight.

Where [8] appears, read: HTRF assay, BMP6 as agonist, C2C12 cells, read-out: BMP6 HTRF.
Setting [9] is: cell-based assay, BMP6, read-out: Cell IC50 BMP6.

Where a chain is given by its changes, count along the chain named. pIC50: −log10 of the molar value. Where two headings read alike, the source gives them in different places.

Chain of ALK6 (O00238 14-502): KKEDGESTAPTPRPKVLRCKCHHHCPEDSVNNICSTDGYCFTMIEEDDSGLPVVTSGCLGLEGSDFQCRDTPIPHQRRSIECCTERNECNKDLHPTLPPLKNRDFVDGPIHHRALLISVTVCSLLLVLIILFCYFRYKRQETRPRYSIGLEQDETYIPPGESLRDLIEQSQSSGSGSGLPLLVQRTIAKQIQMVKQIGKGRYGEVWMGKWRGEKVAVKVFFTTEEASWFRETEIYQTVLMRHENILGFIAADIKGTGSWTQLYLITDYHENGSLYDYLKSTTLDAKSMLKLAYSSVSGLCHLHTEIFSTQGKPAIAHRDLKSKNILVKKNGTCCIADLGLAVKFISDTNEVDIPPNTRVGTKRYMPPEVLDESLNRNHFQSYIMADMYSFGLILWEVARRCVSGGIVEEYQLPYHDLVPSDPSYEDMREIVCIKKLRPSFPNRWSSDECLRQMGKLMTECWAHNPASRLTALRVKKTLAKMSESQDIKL
Chain of ALK3 (P36894 24-532): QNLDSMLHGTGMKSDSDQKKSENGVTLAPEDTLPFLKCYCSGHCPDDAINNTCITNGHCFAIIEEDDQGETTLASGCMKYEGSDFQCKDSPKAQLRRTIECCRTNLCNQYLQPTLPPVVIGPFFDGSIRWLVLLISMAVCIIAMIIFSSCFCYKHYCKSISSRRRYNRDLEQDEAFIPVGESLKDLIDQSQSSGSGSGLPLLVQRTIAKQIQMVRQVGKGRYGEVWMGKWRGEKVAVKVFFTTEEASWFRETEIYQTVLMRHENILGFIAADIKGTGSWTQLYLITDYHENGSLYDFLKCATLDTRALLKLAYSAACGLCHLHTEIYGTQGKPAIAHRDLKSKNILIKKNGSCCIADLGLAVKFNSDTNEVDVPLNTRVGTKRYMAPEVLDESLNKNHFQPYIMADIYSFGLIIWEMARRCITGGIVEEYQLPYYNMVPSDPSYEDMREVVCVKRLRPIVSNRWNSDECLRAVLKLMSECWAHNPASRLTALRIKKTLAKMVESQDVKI
Chain of ALK1 (P37023 22-503): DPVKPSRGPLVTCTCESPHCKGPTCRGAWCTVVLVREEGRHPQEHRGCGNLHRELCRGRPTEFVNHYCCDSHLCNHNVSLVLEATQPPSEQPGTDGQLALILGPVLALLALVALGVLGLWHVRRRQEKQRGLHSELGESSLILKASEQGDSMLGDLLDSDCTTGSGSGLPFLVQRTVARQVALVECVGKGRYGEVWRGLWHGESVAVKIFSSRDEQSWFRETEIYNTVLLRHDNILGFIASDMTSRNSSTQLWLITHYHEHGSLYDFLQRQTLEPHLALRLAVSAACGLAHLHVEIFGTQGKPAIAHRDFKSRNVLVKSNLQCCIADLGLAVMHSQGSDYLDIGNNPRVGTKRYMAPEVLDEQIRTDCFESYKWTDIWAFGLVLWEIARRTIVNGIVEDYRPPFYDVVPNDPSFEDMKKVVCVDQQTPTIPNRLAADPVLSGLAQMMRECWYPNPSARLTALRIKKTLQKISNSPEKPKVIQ

With `CC(O)c1cccc(-c2cnn3cc(-c4ccc(C5(C)CCNCC5)cc4)cnc23)c1` (stereo not shown) [Compound 136, 1-(3-(6-(4-(4-methylpiperidin-4-yl)phenyl)pyrazolo[1,5-a]pyrimidin-3-yl)phenyl)ethanol], the pIC50 is 7.24 in assay [1]; under 5.00 in assay [2]; under 5.00 in assay [3]; under 5.00 in assay [4]; 6.66 in assay [5]; 5.54 in assay [6]. Besides, the pIC50 in assay [7] (setting [8]) is 6.42.

On to `C[C@@H](O)c1cccc(-c2cnn3cc(-c4ccc(OC5(CN6CCCCC6)CC5)cc4)cnc23)c1` [Compound 152, (R)-1-(3-(6-(4-(1-(piperidin-1-ylmethyl)cyclopropoxy)phenyl)pyrazolo[1,5-a]pyrimidin-3-yl)phenyl)ethanol], for which the pIC50 in assay [1] was 7.27; in assay [2] it was 5.25; in assay [3], under 5.00; in assay [4], under 5.00; in assay [5], 6.23; in assay [6], 5.89. Further, in assay [7] (setting [8]), the pIC50 was 6.35.

Take `CCS(=O)(=O)c1cccc(-c2cnn3cc(-c4ccc(CCN5CCCCC5)cc4)cnc23)c1` [Compound 106, 3-(3-(ethylsulfonyl)phenyl)-6-(4-(2-(piperidin-1-yl)ethyl)phenyl)pyrazolo[1,5-a]pyrimidine]: the pIC50 was 7.18 in assay [1]; under 5.00 in assay [2]; under 5.00 in assay [3]; under 5.00 in assay [4]; 6.66 in assay [5]; 5.66 in assay [6]. For the same molecule, the pIC50 in assay [7] (setting [9]) is 8.66.

Regarding `C[C@@H]1CNC[C@H](C)N1c1ccc(-c2cnc3c(-c4ccc(N)c5ccccc45)cnn3c2)cc1` [Compound 59, 4-(6-(4-((2R,6S)-2,6-dimethylpiperazin-1-yl)phenyl)pyrazolo[1,5-a]pyrimidin-3-yl)naphthalen-1-amine], the pIC50 is 7.37 in assay [1]; 5.60 in assay [2]; under 5.00 in assay [3]; 5.39 in assay [4]; 6.85 in assay [5]; 6.05 in assay [6]. In addition, the pIC50 in assay [7] (setting [9]) is 6.55.

As for `CS(=O)(=O)c1cccc(-c2cnn3cc(-c4ccc(C(F)(F)CN5CCCC5)cc4)cnc23)c1` [Compound 119, 6-(4-(1,1-difluoro-2-(pyrrolidin-1-yl)ethyl)phenyl)-3-(3-(methylsulfonyl)phenyl)pyrazolo[1,5-a]pyrimidine], the pIC50 in assay [1] is 6.68; in assay [2] it was under 5.00; in assay [3], under 5.00; in assay [4] it was under 5.00; in assay [5], 6.28; in assay [6], under 5.00. Also, the pIC50 in assay [7] (setting [9]) was 5.98.

Take `C[C@@H]1CNC[C@H](C)N1c1ccc(-c2cnc3c(-c4ccc([S+](N)(=O)[O-])c(C(F)(F)F)c4)cnn3c2)cc1` [Compound 53, 4-(6-(4-((2R,6S)-2,6-dimethylpiperazin-1-yl)phenyl)pyrazolo[1,5-a]pyrimidin-3-yl)-2-(trifluoromethyl)benzenesulfonamide]: the pIC50 in assay [1] was 6.42; in assay [2], under 5.00; in assay [3], under 5.00; in assay [4], under 5.00; in assay [5], 5.54; in assay [6], under 5.00. For the same molecule, the pIC50 in assay [7] (setting [9]) is 6.50.

As for `C[C@@H]1CNC[C@H](C)N1c1ccc(-c2cnc3c(-c4cccc(CS(N)(=O)=O)c4)cnn3c2)cc1` [Compound 73, (3-(6-(4-((2R,6S)-2,6-dimethylpiperazin-1-yl)phenyl)pyrazolo[1,5-a]pyrimidin-3-yl)phenyl)methanesulfonamide], the pIC50 is 7.43 in assay [1]; under 5.00 in assay [2]; under 5.00 in assay [3]; 5.19 in assay [4]; 6.80 in assay [5]; 5.85 in assay [6]. The pIC50 in assay [7] (setting [9]) was 6.12.

Regarding `CN(C)CCc1ccc(-c2cnc3c(-c4ccc(S(N)(=O)=O)c5ccccc45)cnn3c2)cc1` [Compound 68, 4-(6-(4-(2-(dimethylamino)ethyl)phenyl)pyrazolo[1,5-a]pyrimidin-3-yl)naphthalene-1-sulfonamide], the pIC50 in assay [1] was 6.70; in assay [2] it was under 5.00; in assay [3] it was under 5.00; in assay [4] it was under 5.00; in assay [5], 6.17; in assay [6] it was under 5.00. The pIC50 in assay [7] (setting [9]) is 6.02.

On to `CN1CCN(c2ccc(-c3cnc4c(-c5ccc(S(N)(=O)=O)c6ccccc56)cnn4c3)cn2)CC1` [Compound 48, 4-(6-(6-(4-methylpiperazin-1-yl)pyridin-3-yl)pyrazolo[1,5-a]pyrimidin-3-yl)naphthalene-1-sulfonamide], for which the pIC50 in assay [1] was 6.25; in assay [2], under 5.00; in assay [3], under 5.00; in assay [4], under 5.00; in assay [5] it was 5.41; in assay [6], under 5.00. For the same molecule, in assay [7] (setting [9]), the pIC50 was 4.92.

Regarding `CC(O)c1cccc(-c2cnn3cc(-c4ccc(OC5(CN6CCCC6)CC5)cc4)cnc23)c1` (stereo not shown) [Compound 167, 1-(3-(6-(4-(1-(pyrrolidin-1-ylmethyl)cyclopropoxy)phenyl)pyrazolo[1,5-a]pyrimidin-3-yl)phenyl)ethanol], the pIC50 in assay [1] is 7.31; in assay [2], 5.03; in assay [3], under 5.00; in assay [4], under 5.00; in assay [5] it was 6.22; in assay [6], 5.96. In addition, in assay [7] (setting [8]), the pIC50 is 6.43.
